This passage reports MIC results from ChEMBL document CHEMBL1129149, “Synthesis and biological evaluation of 4-alkoxysubstituted trinems. Part II” (1996).

Holding throughout (format): functional
Assay [1] has as its system Staphylococcus aureus. The assay is described as follows: In vitro antibacterial activity against Staphylococcus aureus 663E strain and compared to imipenem.
The test system of assay [2] is Staphylococcus aureus. The assay can be described thus: In vitro antibacterial activity against Staphylococcus aureus 853E beta-lactamase producing strain and compared to imipenem,.
In another assay the test system is Clostridium perfringens. The assay is described as follows: In vitro antibacterial activity against Clostridium perfringens 615E strain and compared to imipenem.
The next assay concerns Pseudomonas aeruginosa. The assay can be described thus: In vitro antibacterial activity against Pseudomonas aeruginosa 1911E strain and compared to imipenem.
Assay [3] concerns Escherichia coli. The assay can be described thus: In vitro antibacterial activity against Escherichia coli 1919E beta-lactamase producing strain and compared to imipenem.
Assay [4] has as its system Escherichia coli. The assay is described as follows: In vitro antibacterial activity against Escherichia coli 1850E strain and compared to imipenem.
Another assay concerns Enterococcus faecalis. The assay is described as follows: In vitro antibacterial activity against […] 850 strain and compared to imipenem.

≈ marks a conversion by molar mass, not a printed value.

On to `C[C@@H](O)[C@H]1C(=O)N2C(C(=O)[O-])=C3[C@@H](OCCN=[N+]=[N-])CCC[C@@H]3[C@H]12.[Na+]`, for which the minimum inhibitory concentration (MIC) against Staphylococcus aureus [1] is 0.25 µg/mL; in the assay on Staphylococcus aureus [2], 0.5 µg/mL; against Clostridium perfringens, 30 µg/mL; in the assay with Pseudomonas aeruginosa, over 32 µg/mL; against Escherichia coli [3] it was 1 µg/mL; in the assay on Escherichia coli [4] it was 8 µg/mL. In the assay with Enterococcus faecalis, inhibition of growth (MIC) required 4 µg/mL.

On to `C[C@@H](O)[C@H]1C(=O)N2C(C(=O)[O-])=C3[C@@H](OCCN)CCC[C@@H]3[C@H]12.[Na+]`, for which the MIC in the assay on Staphylococcus aureus [1] is 0.5 µg/mL; in the assay on Staphylococcus aureus [2] it was 0.5 µg/mL; against Clostridium perfringens, 120 µg/mL; in the assay with Pseudomonas aeruginosa it was 8 µg/mL; in the assay with Escherichia coli [3] it was 0.5 µg/mL; in the assay with Escherichia coli [4], 0.5 µg/mL. Besides, in the assay with Enterococcus faecalis, 8 µg/mL was the least that counted as inhibitory (MIC).

For the compound `C[C@@H](O)[C@H]1C(=O)N2C(C(=O)[O-])=C3[C@@H](OCC/N=C/N)CCC[C@@H]3[C@H]12.[Na+]`, the minimum inhibitory concentration (MIC) against Staphylococcus aureus [1] worked out at 0.25 µg/mL; in the assay on Staphylococcus aureus [2], 0.5 µg/mL; in the assay with Clostridium perfringens, 120 µg/mL; in the assay on Pseudomonas aeruginosa it was 32 µg/mL; against Escherichia coli [3], 1 µg/mL; with Escherichia coli [4], 1 µg/mL. The compound further gave a minimal inhibitory concentration (MIC) with Enterococcus faecalis of 2 µg/mL.

As to `C[C@@H](O)[C@H]1C(=O)N2C(C(=O)O)=C(SCCNC=N)C[C@H]12` [IMIPENEM ANHYDROUS], the minimum inhibitory concentration (MIC) with Staphylococcus aureus [1] was found to be 0.12 µg/mL (≈ 0.401 µM); in the assay with Staphylococcus aureus [2], 0.12 µg/mL (≈ 0.401 µM); with Clostridium perfringens it was 30 µg/mL (≈ 100 µM); with Pseudomonas aeruginosa, 4 µg/mL (≈ 13.4 µM); against Escherichia coli [3], 0.5 µg/mL (≈ 1.67 µM); in the assay with Escherichia coli [4], 0.5 µg/mL (≈ 1.67 µM). Besides, the MIC against Enterococcus faecalis stood at 2 µg/mL (≈ 6.68 µM).

As to `C[C@@H](O)[C@H]1C(=O)N2C(C(=O)[O-])=C3[C@@H](OCCCN)CCC[C@@H]3[C@H]12.[Na+]`, the MIC in the assay on Staphylococcus aureus [1] amounted to 0.2 µg/mL; in the assay on Staphylococcus aureus [2], 0.2 µg/mL; in the assay on Clostridium perfringens it was 60 µg/mL; in the assay with Pseudomonas aeruginosa, 16 µg/mL; against Escherichia coli [3], 0.5 µg/mL; in the assay on Escherichia coli [4], 0.5 µg/mL. This compound also had an MIC against Enterococcus faecalis of 4 µg/mL.

Take `C/C(N)=N\CCO[C@H]1CCC[C@H]2C1=C(C(=O)[O-])N1C(=O)[C@H]([C@@H](C)O)[C@@H]21.[Na+]`: the minimum inhibitory concentration (MIC) amounted to 1 µg/mL in the assay with Staphylococcus aureus [1]; 2 µg/mL against Staphylococcus aureus [2]; 120 µg/mL against Clostridium perfringens; 32 µg/mL in the assay on Pseudomonas aeruginosa; 0.5 µg/mL against Escherichia coli [3]; 1 µg/mL against Escherichia coli [4]. In the assay with Enterococcus faecalis, this compound registered an MIC of 16 µg/mL.

In the case of `C[C@@H](O)[C@H]1C(=O)N2C(C(=O)[O-])=C3[C@@H](OCCCO)CCC[C@@H]3[C@H]12.[Na+]`, the MIC against Staphylococcus aureus [1] was 0.2 µg/mL; against Staphylococcus aureus [2], 0.5 µg/mL; against Clostridium perfringens it was 30 µg/mL; in the assay with Pseudomonas aeruginosa it was over 32 µg/mL; against Escherichia coli [3], 1 µg/mL; in the assay with Escherichia coli [4], 2 µg/mL. 8 µg/mL was the least that counted as inhibitory against Enterococcus faecalis (MIC).

As for `C[C@@H](O)[C@H]1C(=O)N2C(C(=O)[O-])=C3[C@@H](OCCCN=[N+]=[N-])CCC[C@@H]3[C@H]12.[Na+]`, the minimal inhibitory concentration (MIC) with Staphylococcus aureus [1] is 0.2 µg/mL; against Staphylococcus aureus [2] it was 0.5 µg/mL; in the assay with Clostridium perfringens, 60 µg/mL; with Pseudomonas aeruginosa it was over 32 µg/mL; in the assay with Escherichia coli [3] it was 1 µg/mL; in the assay on Escherichia coli [4], 8 µg/mL. This compound also came in with an MIC with Enterococcus faecalis of 8 µg/mL.

For orientation: MIC means the lowest concentration found to suppress growth. The low end stands for a more susceptible organism, the high end for a less susceptible organism.
